According to PubChem BioAssay (NCI):
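Compound exposure: 48 hours, 5 concentrations, 96-well plates. GI50: concentration for 50% inhibition of growth. TGI is the concentration that stops growth completely.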

What was measured:
Assay in all cases: growth of human tumour cells (NCI), 48 h
ACHN renal = test system: ACHN renal
RPMI-8226 leukemia = test system: RPMI-8226 leukemia
NCI-H226 lung = test system: NCI-H226 lung
U251 CNS = test system: U251 CNS
SNB-19 CNS = test system: SNB-19 CNS
SNB-75 CNS = test system: SNB-75 CNS
HL-60(TB) leukemia = test system: HL-60(TB) leukemia
SK-MEL-28 melanoma = test system: SK-MEL-28 melanoma
T-47D breast = test system: T-47D breast
HS 578T breast = test system: HS 578T breast

Structure (SMILES)	TGI (ACHN renal)	TGI (RPMI-8226 leukemia)	TGI (NCI-H226 lung)	TGI (U251 CNS)	TGI (SNB-19 CNS)	TGI (SNB-75 CNS)	TGI (HL-60(TB) leukemia)	TGI (SK-MEL-28 melanoma)	GI50 (T-47D breast)	TGI (T-47D breast)	GI50 (ACHN renal)	GI50 (HS 578T breast)	TGI (HS 578T breast)	GI50 (RPMI-8226 leukemia)	GI50 (U251 CNS)	GI50 (SNB-19 CNS)	GI50 (SK-MEL-28 melanoma)	GI50 (SNB-75 CNS)	GI50 (NCI-H226 lung)	GI50 (HL-60(TB) leukemia)
COC(=O)C(=O)C(C(=O)C(=O)Nc1cc(C)ccc1C)c1nc2ccc(C(=O)c3ccccc3)cc2[nH]c1=O (stereo not given)	> 100 µM	> 100 µM	> 100 µM	> 100 µM	> 100 µM	–	–	–	–	–	–	–	–	–	–	–	–	–	–	–
CCOC(=O)C(C(O)c1ccc([N+](=O)[O-])cc1)P(=O)(OCC)OCC (stereo not given)	> 100 µM	> 100 µM	> 100 µM	> 100 µM	> 100 µM	> 100 µM	64 µM	> 100 µM	–	–	–	–	–	–	–	–	–	–	–	–
COc1ccc(/C=C2\c3cc(OC)c(OC)c(OC)c3CC[C@@H]2O)cc1F	> 100 µM	> 100 µM	–	33.2 µM	> 100 µM	–	–	> 100 µM	0.36 µM	> 100 µM	0.815 µM	0.299 µM	> 100 µM	1.82 µM	0.469 µM	0.855 µM	7.54 µM	–	–	–
CCc1cccc(C)c1NC(=S)NC(=O)c1ccccc1C(=O)NC(=S)Nc1c(C)cccc1CC	> 100 µM	> 100 µM	> 100 µM	> 100 µM	> 100 µM	> 100 µM	> 100 µM	> 100 µM	–	–	–	–	–	–	–	–	–	–	–	–
[O-]c1c2c(nn1-c1ccc(Cl)cc1)c1ccccc1c[n+]2Cc1ccccc1	> 100 µM	> 100 µM	> 100 µM	> 100 µM	> 100 µM	69.2 µM	> 100 µM	> 100 µM	–	–	–	–	–	–	–	–	–	–	–	–
CCOCc1cc(=O)c2c(OC)cc3c(c2o1)CCC(C)(C)O3	> 100 µM	–	–	> 100 µM	–	> 100 µM	> 100 µM	> 100 µM	–	–	–	–	–	–	–	–	–	–	–	–
COC1=CC(=O)c2nc(Cl)ccc2C1=O	3.04 µM	7.9 µM	21.5 µM	3.03 µM	28 µM	2.73 µM	7.61 µM	3.47 µM	–	–	1.67 µM	2.22 µM	6.18 µM	2.59 µM	1.66 µM	13.7 µM	1.88 µM	1.35 µM	7.61 µM	2.01 µM
COc1cnc2c(c1)C(=O)c1c-2n(CCCN2CCNCC2)c(=O)c2cc([N+](=O)[O-])ccc12	1.22 µM	2.28 µM	–	1.16 µM	2.1 µM	1.97 µM	1.11 µM	3.12 µM	–	–	0.117 µM	1.82 µM	4.6 µM	0.301 µM	0.167 µM	0.21 µM	1.42 µM	0.429 µM	–	0.113 µM
C/C(=N\NC(=O)CC(=O)N(C(=O)c1ccc(Cl)cc1)c1ccc(C)cc1)c1ccccc1O	> 100 µM	> 100 µM	> 100 µM	> 100 µM	> 100 µM	43.9 µM	–	> 100 µM	–	–	–	–	–	–	–	–	–	–	–	–
c1ccc(N/N=C2\NN=C(c3ccccc3)CS2)cc1	19.1 µM	–	> 100 µM	–	85.9 µM	–	> 100 µM	36.6 µM	–	–	–	–	–	–	–	–	–	–	–	–
CCCCN(CCCC)CCCn1cnc2ncccc2c1=O	> 100 µM	–	> 100 µM	> 100 µM	> 100 µM	> 100 µM	–	> 100 µM	–	–	–	–	–	–	–	–	–	–	–	–
CCC[CH2][Pb]([Cl])([CH2]CCC)[CH2]CCC	0.0558 µM	0.0531 µM	–	0.0304 µM	0.33 µM	0.114 µM	0.0444 µM	0.0792 µM	0.0181 µM	0.0383 µM	0.0221 µM	0.0317 µM	0.0913 µM	0.0157 µM	0.0161 µM	0.188 µM	0.0276 µM	0.0215 µM	–	0.0232 µM
COC(=O)/C(=N\NC(N)=O)C(C(=O)C=C(C)C)C(=O)C(=O)Nc1ccc(Cl)c(Cl)c1 (stereo not given)	> 100 µM	–	> 100 µM	> 100 µM	> 100 µM	> 100 µM	> 100 µM	> 100 µM	–	–	–	–	–	–	–	–	–	–	–	–
O=C(O)CCC(C(=O)O)N1C(=O)C2C3CCC(C3)C2C1=O (stereo not given)	> 100 µM	> 100 µM	> 100 µM	> 100 µM	> 100 µM	> 100 µM	–	> 100 µM	–	> 100 µM	–	–	> 100 µM	–	–	–	–	–	–	–
COc1ccc(CCc2cc(OC)c(O)c(OC)c2)cc1	> 100 µM	> 100 µM	> 100 µM	> 100 µM	> 100 µM	> 100 µM	–	58.8 µM	–	–	–	–	–	–	–	–	–	–	–	–
CC(C)C1N2CCCCC2[C@@H]2c3[nH]c4ccccc4c3CCN12 (stereo not given in full)	> 100 µM	> 100 µM	–	> 100 µM	> 100 µM	> 100 µM	> 100 µM	> 100 µM	–	–	–	–	–	–	–	–	–	–	–	–
c1ccc2c(NCCCCCCNc3cccc4ccccc34)cccc2c1	> 100 µM	> 100 µM	> 100 µM	> 100 µM	> 100 µM	> 100 µM	> 100 µM	> 100 µM	–	–	–	–	–	–	–	–	–	–	–	–
O=C1C2C3C=CC(C2C(=O)N1CN1CCSCC1)C1C2C(=O)N(CN4CCSCC4)C(=O)C2C31 (stereo not given)	> 100 µM	61.7 µM	> 100 µM	> 100 µM	> 100 µM	> 93 µM	73 µM	> 100 µM	–	–	–	–	–	32.2 µM	–	–	–	38.6 µM	–	–
COc1cc(/C=C2/C(=O)N(C(=O)OCc3ccccc3)C(Cc3cc(OC)c(OC)c(C)c3OC)C(=O)N2Cc2ccccc2)c(OC)c(C)c1OC (stereo not given)	> 100 µM	> 100 µM	12.6 µM	> 100 µM	> 100 µM	> 100 µM	> 100 µM	> 100 µM	–	–	–	–	–	–	–	–	–	–	–	–
O=c1cc(-c2ccccc2)[nH]c2cc(Cl)ccc12	31 µM	10.5 µM	56 µM	3.91 µM	6.44 µM	6.07 µM	0.612 µM	> 100 µM	–	–	–	–	–	–	–	–	–	–	–	–
Cn1c2ccccc2c2c(=O)n(CCCC(=O)OC(=NC3CCCCC3)NC3CCCCC3)c3c(-c4ccccc4)nnn3c21	> 100 µM	> 100 µM	> 100 µM	> 100 µM	> 100 µM	> 100 µM	–	> 100 µM	55.8 µM	> 100 µM	> 100 µM	> 100 µM	> 100 µM	> 100 µM	> 100 µM	> 100 µM	> 100 µM	44.6 µM	> 100 µM	–
